In ChEMBL document CHEMBL1909589, “5-(2'-Pyridyl)-2-aminothiazoles: alkyl amino sulfonamides and sulfamides as potent NPY(5) antagonists” (Bioorg Med Chem Lett, 2011):

Tests used:
[1] = system: Liver microsomes; test: Intrinsic clearance in human liver microsomes; format: ADME, Microsome
[2] = system: Liver microsomes; test: Intrinsic clearance in rat liver microsomes; format: ADME, Microsome
[3] = Plasma clearance in Sprague-Dawley rat at 2 mg/kg, po and 1 mg/kg, iv by HPLC method; format: ADME, organism-based
[4] = Absolute oral bioavailability in Sprague-Dawley rat at 2 mg/kg by HPLC method; format: ADME, organism-based; details: in vivo
[5] = Plasma concentration in Sprague-Dawley rat at 10 mg/kg, po after 4 hrs; format: ADME, organism-based; set-up: dose 10 mg/kg, route oral
[6] = Drug uptake in Sprague-Dawley rat brain at 10 mg/kg, po after 4 hrs; format: ADME, organism-based; set-up: dose 10 mg/kg, route oral; details: read-out: Drug uptake
[7] = Volume of distribution at steady state in Sprague-Dawley rat at 2 mg/kg, po and 1 mg/kg, iv by HPLC method; format: ADME, organism-based; details: in vivo, read-out: Vdss
[8] = Plasma concentration in Sprague-Dawley rat at 3 mg/kg, po after 1 hr; format: ADME, organism-based; set-up: dose 3 mg/kg, route oral
[9] = Drug uptake in Sprague-Dawley rat brain at 3 mg/kg, po after 1 hr; format: ADME, organism-based; set-up: dose 3 mg/kg, route oral; details: read-out: Drug uptake

Row | SMILES | CL [1] [L/min] | CL [2] [mL/min] | also measured
1 | CN1CCN(S(=O)(=O)NCCCCCNc2nc(-c3ccccn3)cs2)CC1 | 2.5 | 120 | –
2 | O=S(=O)(NCCCCCNc1nc(-c2ccccn2)cs1)N1CCOCC1 | 2.9 | 44 | –
3 | CN(C)S(=O)(=O)NCCCCCNc1nc(-c2ccccn2)cs1 | 1.8 | 110 | clearance [3]: 140 mL/min/kg; bioavailability [4]: 26%; concentration at 4 h [5]: 24 ng/mL; concentration at 4 h [6]: 12 ng/g; Vd [7]: 47 L/kg; concentration at 1 h [8]: 12 ng/mL; concentration at 1 h [9]: 4 ng/g
4 | CC(C)S(=O)(=O)NCCCCCNc1nc(-c2ccsc2)cs1 | 5.4 | 87 | –
5 | CC(C)S(=O)(=O)NCCCCCNc1nc(-c2ccccn2)cs1 | 2.2 | 72 | clearance [3]: 383 mL/min/kg; bioavailability [4]: 49%; Vd [7]: 22 L/kg
6 | COCCN(CCOC)S(=O)(=O)NCCCCCNc1nc(-c2ccccn2)cs1 | 16 | 150 | –
7 | CS(=O)(=O)NC[C@H]1CC[C@H](Nc2nc3c(s2)CCSc2ccccc2-3)CC1 | 2.5 | 40 | –
8 | CCN(CC)S(=O)(=O)NCCCCCNc1nc(-c2ccccn2)cs1 | 27 | 290 | –
9 | CC(C)S(=O)(=O)NCCOCCNc1nc(-c2ccccn2)cs1 | 1.1 | – | –
10 | CC1CN(S(=O)(=O)NCCCCCNc2nc(-c3ccccn3)cs2)CC(C)O1 (stereo not given) | 11 | 74 | –
11 | Cc1nc(C)c(S(=O)(=O)NCCCCCNc2nc(-c3ccccn3)cs2)s1 | 27 | – | –
